Data taken from ChEMBL document CHEMBL3817825, “Synthesis and biological evaluation of Schiff base-linked imidazolyl naphthalimides as novel potential anti-MRSA agents” (2016).
≈ marks a conversion by molar mass, not a printed value.

Key:
[1] = system: Cyberlindnera jadinii; test: Antifungal activity against Candida utilis ATCC9950 after 24 hrs by two fold serial dilution method; type: functional; conditions: Williopsis jadinii, ATCC9950, 24 h
[2] = system: Escherichia coli; test: Antibacterial activity against Escherichia coli DH52 after 24 hrs by two fold serial dilution method; type: functional; conditions: DH52, 24 h
[3] = system: Aspergillus flavus; test: Antifungal activity against Aspergillus flavus ATCC204304 after 24 hrs by two fold serial dilution method; type: functional; conditions: ATCC204304, 24 h
[4] = system: Staphylococcus aureus; test: Antibacterial activity against Staphylococcus aureus ATCC25923 after 24 hrs by two fold serial dilution method; type: functional; conditions: ATCC25923, 24 h
[5] = system: Micrococcus luteus; test: Antibacterial activity against Micrococcus luteus ATCC4698 after 24 hrs by two fold serial dilution method; type: functional; conditions: ATCC4698, 24 h
[6] = system: Escherichia coli; test: Antibacterial activity against Escherichia coli JM109 after 24 hrs by two fold serial dilution method; type: functional; conditions: JM109, 24 h
[7] = system: Saccharomyces cerevisiae; test: Antifungal activity against Beer yeast ATCC9763 after 24 hrs by two fold serial dilution method; type: functional; conditions: ATCC9763, 24 h
[8] = system: Candida albicans; test: Antifungal activity against Candida albicans ATCC76615 after 24 hrs by two fold serial dilution method; type: functional; conditions: ATCC76615, 24 h
[9] = system: Staphylococcus aureus; test: Antibacterial activity against methicillin-resistant Staphylococcus aureus N315 after 24 hrs by two fold serial dilution method; type: functional; conditions: N315, 24 h
[10] = system: Bacillus; test: Antibacterial activity against Bacillus proteus ATCC13315 after 24 hrs by two fold serial dilution method; type: functional; conditions: ATCC13315, 24 h
[11] = system: Shigella dysenteriae; test: Antibacterial activity against Shigella dysenteriae after 24 hrs by two fold serial dilution method; type: functional
[12] = system: Salmonella typhi; test: Antibacterial activity against Bacillus typhi after 24 hrs by two fold serial dilution method; type: functional, Salmonella enterica subsp. enterica serovar Typhi; conditions: Salmonella enterica
[13] = system: Pseudomonas aeruginosa; test: Antibacterial activity against Pseudomonas aeruginosa ATCC27853 after 24 hrs by two fold serial dilution method; type: functional; conditions: ATCC27853, 24 h
[14] = system: Bacillus subtilis; test: Antibacterial activity against Bacillus subtilis ATCC6633 after 24 hrs by two fold serial dilution method; type: functional; conditions: ATCC6633, 24 h
[15] = system: Candida; test: Antifungal activity against Candida mycoderma ATCC10231 after 24 hrs by two fold serial dilution method; type: functional; conditions: ATCC10231, 24 h

Row | Structure (SMILES) | MIC [1] [µM] | MIC [2] [µM] | MIC [3] [µM] | MIC [4] [µM] | MIC [5] [µM] | MIC [6] [µM] | MIC [7] [µM] | MIC [8] [µM] | MIC [9] [µM] | MIC [10] [µM] | MIC [11] [µM] | MIC [12] [µM] | MIC [13] [µM] | MIC [14] [µM] | MIC [15] [µM]
1 | CCCCc1nc(Cl)c(/C=N/N2C(=O)c3cccc4c(N5CCOCC5)ccc(c34)C2=O)n1Cc1ccc(Cl)cc1Cl | 180 (≈ 112 µg/mL) | 740 (≈ 462 µg/mL) | 180 (≈ 112 µg/mL) | 180 (≈ 112 µg/mL) | 180 (≈ 112 µg/mL) | 370 (≈ 231 µg/mL) | 370 (≈ 231 µg/mL) | 370 (≈ 231 µg/mL) | 370 (≈ 231 µg/mL) | 370 (≈ 231 µg/mL) | 0.37 (≈ 0.231 µg/mL) | 0.37 (≈ 0.231 µg/mL) | 180 (≈ 112 µg/mL) | 370 (≈ 231 µg/mL) | 370 (≈ 231 µg/mL)
2 | CCCCc1nc(Cl)c(/C=N/N2C(=O)c3cccc4c(Br)ccc(c34)C2=O)[nH]1 | 1110 (≈ 510 µg/mL) | 1110 (≈ 510 µg/mL) | 1110 (≈ 510 µg/mL) | 1110 (≈ 510 µg/mL) | 1110 (≈ 510 µg/mL) | 1110 (≈ 510 µg/mL) | 140 (≈ 64.4 µg/mL) | 1110 (≈ 510 µg/mL) | 560 (≈ 257 µg/mL) | 1110 (≈ 510 µg/mL) | 0.56 (≈ 0.257 µg/mL) | 1.11 (≈ 0.51 µg/mL) | 560 (≈ 257 µg/mL) | 560 (≈ 257 µg/mL) | 1110 (≈ 510 µg/mL)
3 | CCCCCCCCn1c(CCCC)nc(Cl)c1/C=N/N1C(=O)c2cccc3c(N4CCOCC4)ccc(c23)C1=O | 880 (≈ 509 µg/mL) | 440 (≈ 254 µg/mL) | 880 (≈ 509 µg/mL) | 220 (≈ 127 µg/mL) | 880 (≈ 509 µg/mL) | 220 (≈ 127 µg/mL) | 880 (≈ 509 µg/mL) | 440 (≈ 254 µg/mL) | 440 (≈ 254 µg/mL) | 440 (≈ 254 µg/mL) | 0.88 (≈ 0.509 µg/mL) | 0.44 (≈ 0.254 µg/mL) | 880 (≈ 509 µg/mL) | 440 (≈ 254 µg/mL) | 440 (≈ 254 µg/mL)
4 | CCCCc1nc(Cl)c(/C=N/N2C(=O)c3cccc4c(N5CCOCC5)ccc(c34)C2=O)[nH]1 | 550 (≈ 256 µg/mL) | 270 (≈ 126 µg/mL) | 550 (≈ 256 µg/mL) | 270 (≈ 126 µg/mL) | 270 (≈ 126 µg/mL) | 270 (≈ 126 µg/mL) | 270 (≈ 126 µg/mL) | 270 (≈ 126 µg/mL) | 70 (≈ 32.6 µg/mL) | 270 (≈ 126 µg/mL) | 0.07 (≈ 0.0326 µg/mL) | 0.27 (≈ 0.126 µg/mL) | 70 (≈ 32.6 µg/mL) | 550 (≈ 256 µg/mL) | 140 (≈ 65.2 µg/mL)
5 | CCCCc1nc(Cl)c(/C=N/N2C(=O)c3cccc4c(N5CCCCC5)ccc(c34)C2=O)[nH]1 | 280 (≈ 130 µg/mL) | 560 (≈ 260 µg/mL) | 550 (≈ 255 µg/mL) | 280 (≈ 130 µg/mL) | 280 (≈ 130 µg/mL) | 560 (≈ 260 µg/mL) | 550 (≈ 255 µg/mL) | 140 (≈ 65 µg/mL) | 280 (≈ 130 µg/mL) | 560 (≈ 260 µg/mL) | 0.28 (≈ 0.13 µg/mL) | 0.56 (≈ 0.26 µg/mL) | 560 (≈ 260 µg/mL) | 280 (≈ 130 µg/mL) | 550 (≈ 255 µg/mL)
6 | CCCCc1nc(Cl)c(/C=N/N2C(=O)c3cccc4c(N5CCOCC5)ccc(c34)C2=O)n1Cc1ccc(Cl)c(Cl)c1 | 370 (≈ 231 µg/mL) | 180 (≈ 112 µg/mL) | 740 (≈ 462 µg/mL) | 740 (≈ 462 µg/mL) | 370 (≈ 231 µg/mL) | 370 (≈ 231 µg/mL) | 180 (≈ 112 µg/mL) | 370 (≈ 231 µg/mL) | 370 (≈ 231 µg/mL) | 180 (≈ 112 µg/mL) | 0.74 (≈ 0.462 µg/mL) | 0.74 (≈ 0.462 µg/mL) | 740 (≈ 462 µg/mL) | 370 (≈ 231 µg/mL) | 370 (≈ 231 µg/mL)
7 | CCCCc1nc(Cl)c(/C=N/N2C(=O)c3cccc4c(N5CCOCC5)ccc(c34)C2=O)n1Cc1ccc(F)cc1 | 440 (≈ 253 µg/mL) | 890 (≈ 511 µg/mL) | 890 (≈ 511 µg/mL) | 890 (≈ 511 µg/mL) | 440 (≈ 253 µg/mL) | 440 (≈ 253 µg/mL) | 890 (≈ 511 µg/mL) | 440 (≈ 253 µg/mL) | 440 (≈ 253 µg/mL) | 440 (≈ 253 µg/mL) | 0.89 (≈ 0.511 µg/mL) | 0.44 (≈ 0.253 µg/mL) | 890 (≈ 511 µg/mL) | 440 (≈ 253 µg/mL) | 440 (≈ 253 µg/mL)
8 | CCCCCn1c(CCCC)nc(Cl)c1/C=N/N1C(=O)c2cccc3c(N4CCOCC4)ccc(c23)C1=O | 7 (≈ 3.75 µg/mL) | 480 (≈ 257 µg/mL) | 480 (≈ 257 µg/mL) | 240 (≈ 129 µg/mL) | 240 (≈ 129 µg/mL) | 480 (≈ 257 µg/mL) | 480 (≈ 257 µg/mL) | 480 (≈ 257 µg/mL) | 480 (≈ 257 µg/mL) | 480 (≈ 257 µg/mL) | 0.48 (≈ 0.257 µg/mL) | 0.24 (≈ 0.129 µg/mL) | 960 (≈ 515 µg/mL) | 240 (≈ 129 µg/mL) | 480 (≈ 257 µg/mL)
9 | CCCCc1nc(Cl)c(/C=N/N2C(=O)c3cccc4c(N5CCCC5)ccc(c34)C2=O)[nH]1 | 280 (≈ 126 µg/mL) | 280 (≈ 126 µg/mL) | 570 (≈ 256 µg/mL) | 570 (≈ 256 µg/mL) | 280 (≈ 126 µg/mL) | 280 (≈ 126 µg/mL) | 570 (≈ 256 µg/mL) | 140 (≈ 63 µg/mL) | 280 (≈ 126 µg/mL) | 570 (≈ 256 µg/mL) | 0.57 (≈ 0.256 µg/mL) | 0.57 (≈ 0.256 µg/mL) | 570 (≈ 256 µg/mL) | 570 (≈ 256 µg/mL) | 140 (≈ 63 µg/mL)
10 | CCCCc1nc(Cl)c(/C=N/N2C(=O)c3cccc4c(N5CCOCC5)ccc(c34)C2=O)n1Cc1ccc(Cl)cc1 | 220 (≈ 130 µg/mL) | 430 (≈ 254 µg/mL) | 870 (≈ 514 µg/mL) | 870 (≈ 514 µg/mL) | 430 (≈ 254 µg/mL) | 430 (≈ 254 µg/mL) | 220 (≈ 130 µg/mL) | 430 (≈ 254 µg/mL) | 430 (≈ 254 µg/mL) | 430 (≈ 254 µg/mL) | 0.87 (≈ 0.514 µg/mL) | 0.43 (≈ 0.254 µg/mL) | 870 (≈ 514 µg/mL) | 430 (≈ 254 µg/mL) | 430 (≈ 254 µg/mL)
11 | CCCCc1nc(Cl)c(/C=N/N2C(=O)c3cccc4c(N5CCOCC5)ccc(c34)C2=O)n1Cc1ccccc1F | 440 (≈ 253 µg/mL) | 440 (≈ 253 µg/mL) | 440 (≈ 253 µg/mL) | 220 (≈ 126 µg/mL) | 220 (≈ 126 µg/mL) | 110 (≈ 63.1 µg/mL) | 440 (≈ 253 µg/mL) | 440 (≈ 253 µg/mL) | 440 (≈ 253 µg/mL) | 440 (≈ 253 µg/mL) | 0.44 (≈ 0.253 µg/mL) | 0.44 (≈ 0.253 µg/mL) | 220 (≈ 126 µg/mL) | 440 (≈ 253 µg/mL) | 440 (≈ 253 µg/mL)
12 | CCCCc1nc(Cl)c(/C=N/N2C(=O)c3cccc4c(N5CCOCC5)ccc(c34)C2=O)n1Cc1ccccc1Cl | 430 (≈ 254 µg/mL) | 870 (≈ 514 µg/mL) | 220 (≈ 130 µg/mL) | 870 (≈ 514 µg/mL) | 870 (≈ 514 µg/mL) | 110 (≈ 65 µg/mL) | 430 (≈ 254 µg/mL) | 430 (≈ 254 µg/mL) | 430 (≈ 254 µg/mL) | 430 (≈ 254 µg/mL) | 0.22 (≈ 0.13 µg/mL) | 0.43 (≈ 0.254 µg/mL) | 870 (≈ 514 µg/mL) | 430 (≈ 254 µg/mL) | 870 (≈ 514 µg/mL)
13 | OC(Cn1cncn1)(Cn1cncn1)c1ccc(F)cc1F [FLUCONAZOLE] | 30 (≈ 9.19 µg/mL) |  | 840 (≈ 257 µg/mL) |  |  |  | 50 (≈ 15.3 µg/mL) | 3 (≈ 0.919 µg/mL) |  |  |  |  |  |  | 10 (≈ 3.06 µg/mL)
14 | CCn1cc(C(=O)O)c(=O)c2cc(F)c(N3CCNCC3)cc21 [NORFLOXACIN] |  | 3 (≈ 0.958 µg/mL) |  | 6 (≈ 1.92 µg/mL) | 6 (≈ 1.92 µg/mL) | 3 (≈ 0.958 µg/mL) |  |  | 20 (≈ 6.39 µg/mL) | 20 (≈ 6.39 µg/mL) | 0.05 (≈ 0.016 µg/mL) |  | 50 (≈ 16 µg/mL) | 10 (≈ 3.19 µg/mL) | 
